Measurements from patent US11881606B2, “Conductive materials to drive bacterial carbon dioxide fixation” (The Government of the United States of America, as …, priority 2019, dated 2024).
Values joined by “and” are separate entries in the source; they are usually repeats but may differ in a detail not shown here. Identical values can stand only once.

How the values were obtained:
Biocathode MCL [1] = experiment: Current production by Biocathode MCL on electrode set at 0.310 V with antibiotics; format: cell-based; conditions: ampicillin at 100 μg/ml; electrode potential set at 0.310 V
Protocol: (§1) Biocathode MCL was cultivated in artificial seawater (ASW) medium containing 27.50 g NaCl, 3.80 g MgCl2·6H2O, 6.78 g MgSO4·H2O, 0.72 g KCl, 0.62 g NaHCO3, 5.58 g CaCl2·H2O, 1.00 g NH4Cl, 0.05 g K2HPO4, and 1 ml Wolfe's Trace Mineral Solution per liter. The NaHCO3 was autoclaved in a separate sealed bottle and added after cooling to avoid precipitation. The medium was adjusted to a pH between 6.5 and 6.8 by briefly bubbling with 100% CO2. Source cultures were continuously maintained in 2 liter, 3-electrode reactors with carbon cloth as working and counter electrodes. The working electrode was poised at 0.310 V SHE (standard hydrogen electrode).
For these experiments, bioelectrochemical systems (BES) were 175 ml glass electrochemical reactors (Pine Instruments, Grove City, Pa.). Working electrodes were either 10.5 cm^2 graphite flags (Tri-Gemini, Hillside, Ill.) or carbon cloth (Fuel Cell Earth, Woburn, Mass.) cut to roughly 3.5×1.5 cm for an area of 10.5 cm^2. Counter electrodes were carbon cloth electrodes cut to approximately 3.5×1.5 cm. Graphite flags were sanded down prior to cleaning. Both carbon cloth and graphite flag electrodes were soaked overnight in 1 M hydrochloric acid, then rinsed and soaked overnight in ultrapure deionized water (MilliQ, Millipore-Sigma, Burlington, Mass.). Electrodes were suspended in the reactors from titanium wires, attached by titanium screws. […]

Biocathode MCL [2] = experiment: Effect of antibiotics and cyanide on the open circuit potential (OCP) of electrodes with Biocathode MCL biofilm; format: cell-based
Protocol: FIGS. 3A and 3B illustrate the effect of the addition of antibiotics on the open circuit potential (OCP). […]
as §1
For these experiments, bioelectrochemical systems (BES) were 175 ml glass electrochemical reactors (Pine Instruments, Grove City, Pa.). Working electrodes were either 10.5 cm^2 graphite flags (Tri-Gemini, Hillside, Ill.) or carbon cloth (Fuel Cell Earth, Woburn, Mass.) cut to roughly 3.5×1.5 cm for an area of 10.5 cm^2. Counter electrodes were carbon cloth electrodes cut to approximately 3.5×1.5 cm. Graphite flags were sanded down prior to cleaning. Both carbon cloth and graphite flag electrodes were soaked overnight in 1 M hydrochloric acid, then rinsed and soaked overnight in ultrapure deionized water (MilliQ, Millipore-Sigma, Burlington, Mass.). Electrodes were suspended in the reactors from titanium wires, attached by titanium screws. The reference electrodes for the experiments were 3 M KCl Ag/AgCl (BASI, West Lafayette, Ind.) washed in bleach and rinsed in sterile ultrapure deionized water. All potentials are reported here as vs. SHE by adding 0.21V to the experimental potentials vs. Ag/AgCl.
Once assembled, the BES were maintained at 30° C. using water jackets and stirred using small stir bars and stir plates (VWR, Radnor, Pa., USA). The electrodes were connected to a multichannel potentiostat (Biologic, Seyssinet-Pariset, France), which was used to record cyclic voltammograms at fast (20 mV/S) and slow (0.2 mV/S) scan rates, and then to monitor the OCP or, for experiments with set potential, to hold the potential at 0.310 V and monitor current production. After the signal stabilized, the reactors were inoculated with 1 ml of initial inoculum diluted 10^−3 or 10^−4-fold. Based on the cell counts of filtered inoculum, reactors in experiment 1 were inoculated with ca. 30 or ca. 300 cells, while reactors in experiment 2 were inoculated with ca. 110 or ca. 1100 cells and reactors in experiment 3 were inoculated with 700 cells.
The effect of antibiotics on the open circuit potential was examined in order to determine whether the maintenance of the OCP was dependent on metabolically active cells. Because ampicillin kills only dividing cells (by interfering with cell wall formation^21), while kanamycin kills by interfering with translation machinery (killing bacteria that are actively manufacturing proteins^21), these antibiotics were used to determine the rough metabolic state of the cells.
To test how long the cells remained active and sensitive to antibiotics, reactors were incubated for 26 days before antibiotic additions. The inoculated reactors maintained an OCP close to 0.50 V vs. SHE during the 26-day incubation. […] Cyanide, which inhibits cytochrome function, caused an immediate drop in potential in both old and young reactors (FIGS. 3A and 3B).

[3] = added 10 days after inoculation

CC1(C)S[C@@H]2[C@H](NC(=O)[C@H](N)c3ccccc3)C(=O)N2[C@H]1C(=O)O [ampicillin]
Current production (Biocathode MCL [1]): inhibited
OCP at end of drop (Biocathode MCL [2]; [3]): return to its pre-inoculation level
Time until OCP began dropping (Biocathode MCL [2]; [3]): 2 to 3 days
Time until OCP reduction began (Biocathode MCL [2]; added 26 days after inoculation): two
Effect on OCP (Biocathode MCL [2]; added 26 days after inoculation, followed for two weeks): not returning to the abiotic OCP even after two weeks

NC[C@H]1O[C@H](O[C@H]2[C@H](O)[C@@H](O[C@H]3O[C@H](CO)[C@@H](O)[C@H](N)[C@H]3O)[C@H](N)C[C@@H]2N)[C@H](O)[C@@H](O)[C@@H]1O [kanamycin]
Time until drop in OCP began (Biocathode MCL [2]; added 10 days after inoculation, two experiments): 13 h and 10 h
